Laboratory results: patent publication EP0818744A2, “Process for selecting candidate drug compounds” (Proteus Molecular Design Limited, priority 1996, dated 1998)
Like-named read-outs stand apart in the source and are kept apart here. Non-standard residues stand in square brackets, D forms with d. Residues, ends and D or L forms follow the SMILES beside them. *: point of attachment. dPhe(4-Br) = N[C@H](Cc1ccc(Br)cc1)C(=O)O; Agmatine = N=C(N)NCCCCN*

Target: thrombin (Homo sapiens, UniProt P00734)
Assay: colorimetric microplate assay with synthetic peptide substrates, inhibition of thrombin
Format: biochemical
Description: The compounds were tested for inhibition of thrombin and trypsin using a colorimetric microplate assay with synthetic peptide substrates as described by Tapparelli, J. Biol. Chem. 268:4734 (1993). […]

[1] = values not in parentheses (purified compounds, error less than 10%), '-' = not active, read-out: Ki Thrombin

| Ki [1] [nM] | Ki (most active compound, read-out: Ki) [nM] | Compound |
| --- | --- | --- |
| 120 | – | NC(N)=NCCCCNC(=O)[C@@H]1CCCN1C(=O)[C@H](N)Cc1ccccc1 [Compound A2B1] (H-[dF]-Pro-Agmatine) |
| 690 | – | NCCCCCNC(=O)[C@@H]1CCCN1C(=O)[C@H](N)Cc1ccccc1 [Compound A2B9] |
| – | 41 | N=C(N)NCCCCNC(=O)[C@@H]1CCCN1C(=O)[C@H](N)Cc1ccc(Br)cc1 [Compound A3B1] (H-[dPhe(4-Br)]-Pro-Agmatine) |
